PMC11206987, “Investigation of the Efficacy of Benzylidene-3-methyl-2-thioxothiazolidin-4-one Analogs with Antioxidant Activities on the Inhibition of Mushroom and Mammal Tyrosinases” (Molecules, 2024)
Like-named read-outs stand apart in the source and are kept apart here.

How the values were obtained:
[1] = molecular target: mushroom tyrosinase (Agaricus bisporus, UniProt C7FF04); test: Kinetic study of mushroom tyrosinase inhibition (Lineweaver–Burk and Dixon plots); format: biochemical
Protocol: The initial rate of dopachrome generation was examined at various BMTTZD analog concentrations (0, 1.5, 3, and 6 µM for analog 1; 0, 2, 4, and 8 µM for analogs 2 and 5; and 0, 0.05, 0.1, and 0.2 µM for 3) with 0.5, 1, 2, 4, 8, or 16 mM L-dopa as substrates using mushroom tyrosinase. Plotting the reciprocal of the dopachrome formation rate against the inverse of the L-dopa concentration produced Lineweaver–Burk plots (Figure 2). Each Lineweaver–Burk plot created four straight lines with different slopes. For analogs 1 and 3, the four straight lines met at a point on the y-axis, whereas for analogs 2 and 5, the four straight lines converged at a point in the second quadrant.
The Dixon plots produced lines that met in the second quadrant. The x-coordinate of the convergence position represents the inhibition constant (Ki) of the ligand.
Lineweaver–Burk (L-B) plots were acquired for the kinetic analysis of analogs against mushroom tyrosinase as previously described. In brief, 10 µL of a solution of DMSO and BMTTZD analogs 1–3 or 5 (final concentrations: 0, 1.5, 3, and 6 µM for analog 1; 0, 2, 4, and 8 µM for analogs 2 and 5; and 0, 0.05, 0.1, and 0.2 µM for analog 3) in each well of a 96-well plate was mixed with 20 µL of aqueous mushroom tyrosinase solution (200 units/mL) and 170 µL of an aqueous substrate mixture (various concentrations of L-dopa (final concentrations: 16, 8, 4, 2, 1 and 0.5 mM) and 17.2 mM sodium phosphate buffer (pH 6.5)). During incubation (15 min at 37 °C), the increase in the well absorbance (ΔOD475/min) was calculated at 1 min intervals utilizing a VersaMax® reader.

[2] = DPPH radical scavenging activity assay; details: 500 µM
Protocol: First, the ability of BMTTZD analogs 1–8 to scavenge DPPH radicals was examined using L-ascorbic acid (vitamin C; positive control). All samples were tested at 500 µM.
The ability of the BMTTZD analogs to scavenge DPPH radicals was evaluated as previously reported. To each well of a 96-well plate containing analogs 1–8 (5 mM in […]; 20 µL) was added a DPPH solution (0.2 mM in methanol; 180 µL). The mixture was kept in a place without light for 30 min at 25°C to generate DPPH radicals. The well absorbance at 517 nm was measured utilizing a VersaMax® reader. The ability of the analogs to remove DPPH radicals was compared to that of vitamin C.

[3] = ABTS+ radical scavenging activity assay; details: 100 µM
Protocol: Second, the ability of BMTTZD analogs to scavenge ABTS^+ radicals was examined. ABTS^+ radicals were obtained via the oxidation of ABTS using potassium persulfate. All samples (Trolox (positive control) and 1–8) were tested at 100 µM.
The ability of the BMTTZD analogs to scavenge ABTS^+ radicals was assessed as previously described, with minor modifications. To a 50 mL tube were added 20 mL aqueous K2S2O8 solution (2.45 mM) and 20 mL aqueous ABTS solution (7 mM). The combined mixture was placed at 22 °C in a place without light for 17 h to generate the ABTS^+ radicals. For adequate absorbance control (0.70 ± 0.02 at 734 nm), methanol was added to the combined mixture. Test compounds (Trolox and analogs 1–8; 10 µL in 10% DMSO/90% EtOH [v/v] solution) were mixed with 90 µL ABTS^+ radical solution. After storage in a place without light for 2 min, the well absorbance at 734 nm was acquired for 10 min every 1 min by using a microplate reader (VersaMax®). All test compounds were tested at 100 µM. The activity of the analogs was compared to that of Trolox.

[4] = test system: mushroom tyrosinase; test: Mushroom tyrosinase inhibition assay (dopachrome, 475 nm); format: biochemical; details: for IC50: mushroom tyrosinase
Protocol: The ability of the BMTTZD analogs to inhibit mushroom tyrosinase was evaluated in the presence of L-dopa and L-tyrosine as previously described.

[5] = test system: B16F10 cells; test: Cell cytotoxicity test (EZ-Cytox); format: cell-based, murine; details: 2.5–20 µM, 48 and 72 h
Protocol: Because analogs 1–3 and 5 exerted potent mushroom tyrosinase inhibitory activities, their effects on anti-melanogenic and cellular tyrosinase activities were evaluated in B16F10 murine cells. Prior to examining their cellular activity, their cell viabilities were investigated. Cell viability was evaluated at 48 and 72 h after treatment with five different concentrations of analogs.
The effect on B16F10 cytotoxicity was assessed following a previously described method. Cells (1 × 10^4 cells/well of a 96-well plate) were cultivated for 24 h with 5% CO2 at 37 °C. The cells were exposed to the BMTTZD analogs (test concentrations: 20, 10, 5, 2.5, and 0 µM) and cultivated with 5% CO2 at 37 °C for 72 h. An EZ-Cytox solution (10 µL; EZ-500, DoGenBio, Seoul, Republic of Korea) was exposed to each well, and the plate was cultivated for 2 h. Cell viability was calculated from the well absorbance measured at 450 nm utilizing a reader (VersaMax®).

Sequence of mushroom tyrosinase (Agaricus bisporus, UniProt C7FF04) (C7FF04 1-392): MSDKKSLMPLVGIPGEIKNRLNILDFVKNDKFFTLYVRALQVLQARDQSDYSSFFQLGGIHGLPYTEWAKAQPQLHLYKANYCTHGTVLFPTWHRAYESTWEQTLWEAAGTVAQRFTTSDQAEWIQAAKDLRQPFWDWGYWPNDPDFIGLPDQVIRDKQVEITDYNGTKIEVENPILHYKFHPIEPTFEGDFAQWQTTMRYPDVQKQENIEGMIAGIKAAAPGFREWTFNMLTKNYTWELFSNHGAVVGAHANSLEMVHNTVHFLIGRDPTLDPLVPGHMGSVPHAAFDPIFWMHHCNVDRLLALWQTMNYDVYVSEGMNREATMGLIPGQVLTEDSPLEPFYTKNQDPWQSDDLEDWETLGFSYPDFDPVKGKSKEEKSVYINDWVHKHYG

CN1C(=O)/C(=C/c2ccc(O)cc2O)SC1=S [Analog 3, (Z)-5-(2,4-Dihydroxybenzylidene)-3-methyl-2-thioxothiazolidin-4-one]
type of tyrosinase inhibition (Lineweaver–Burk plots) ([1]; substrate L-dopa 0.5–16 mM): competitive inhibitors | Ki ([1]; substrate L-dopa, read-out: inhibition constant (Ki) from Dixon plots): 47 nM | DPPH radical scavenging activity [2]: 82% | ABTS^+ radical scavenging activity [3]: 95% | tyrosinase inhibition, fold stronger than kojic acid ([4]; substrate L-dopa): 22 fold | IC50 ([4]; substrate L-dopa, read-out: IC50 (Mean ± SEM, µM) L-Dopa): 1.12 ± 0.06 µM | tyrosinase inhibition, times stronger than kojic acid ([4]; substrate L-tyrosine): 220 times | IC50 ([4]; substrate L-tyrosine, read-out: IC50 (Mean ± SEM, µM) L-Tyrosine): 0.08 ± 0.02 µM | cytotoxicity (cell viability) [5]: did not exhibit cytotoxicity at ≤20 µM
